Structures are written as SMILES.

The experiment deals with Aldo-keto reductase family 1 member B1 (Rattus norvegicus, UniProt P07943). Briefly: Inhibitory activity against purified rat lens aldose reductase (RLAR).
Regarding `O=C(O)CC1c2cc(F)ccc2-c2ccc(F)cc21`, the IC50 – broadly, the point on the concentration scale where inhibition reaches its midpoint – stood at 0.43 µM. Under `O=C1NC(=O)C2(N1)c1ccccc1-c1ccccc12` stands 3.5 µM; under `c1ccc2c(c1)-c1ccccc1C2c1nnn[nH]1`, 217 µM; under `CC(C)c1cccc2c1OC(C(C)C)C(=S)N2CC(=O)O` (stereo not drawn), 0.13 µM.

For `O=C(O)C=C1c2cc(F)ccc2-c2ccc(F)cc21`, the IC50 is 16 µM. As for `O=C(O)C1c2ccccc2-c2ccccc21`, the figure is 182 µM; as for `O=C(O)CC1c2ccccc2-c2ccc(F)cc21` (stereo not drawn), 0.85 µM. Under `O=C(O)C1CC12c1ccccc1-c1ccccc12` (stereo not drawn) stands 11.7 µM. `c1ccc2c(c1)-c1ccccc1C2Cc1nnn[nH]1` returned an IC50 of 1490 µM. This IC50 lies about 130-fold higher than the previous one. On to `O=C(O)/C=C1\c2ccccc2-c2ccc(F)cc21`, for which the IC50 came out at 56 µM. As for `O=C(O)CC1c2ccccc2-c2ccccc21`, the figure is 8.9 µM; as for `O=C(O)Cc1nn(Cc2ccc(Br)cc2F)c(=O)c2ccccc12` [PONALRESTAT], 0.016 µM; as for `O=C(O)Cn1c(=O)n(Cc2ccc(Br)cc2F)c(=O)c2ccc(Cl)cc21` [ZENARESTAT], 0.0044 µM.

The record behind these values is ChEMBL document CHEMBL1127671, “Molecular modeling studies of aldose reductase inhibitors” (J Med Chem, 1994).
